The values below come from patent US9326516B2, “Molecules having certain pesticidal utilities, and intermediates, compositions, and processes related thereto” (Dow AgroSciences LLC, priority 2014, dated 2016).

Common to all, as to assay type: in vivo
Series [1] relates to Cabbage Looper (Trichoplusia ni, TRIPNI). Put plainly: Bioassay on Cabbage Looper (CL), 128-well diet tray assay. To be noted: 168 h, 50 μg/cm^2 on artificial diet, second instar CL larvae, 25° C., five to seven days, average of eight wells, read-out: CL % Control (or Mortality) rating. As to the method: (§1) Certain molecules disclosed in this document were tested against BAW and CEW using procedures described in the following examples. In the reporting of the results, the “BAW & CL Rating Table” was used (See Table Section).
Bioassays on CL were conducted using a 128-well diet tray assay, one to five second instar CL larvae were placed in each well (3 mL) of the diet tray that had been previously filled with 1 mL of artificial diet to which 50 μg/cm^2 of the test compound (dissolved in 50 μL of 90:10 acetone-water mixture) had been applied (to each of eight wells) and then allowed to dry. Trays were covered with a clear self-adhesive cover and held at 25° C., 14:10 light-dark for five to seven days. Percent mortality was recorded for the larvae in each well; activity in the eight wells was then averaged. The results are indicated in the table entitled “Table ABC: Biological Results” (See Table Section).

Series [2] concerns Beet Armyworm (Spodoptera exigua, LAPHEG). As to the kind of experiment: Bioassay on Beet Armyworm (BAW), 128-well diet tray assay. To be noted: 168 h, 50 μg/cm^2 on artificial diet, second instar BAW larvae, 25° C., five to seven days, average of eight wells, read-out: BAW % Control (or Mortality) rating. On the procedure:
as §1
Bioassays on BAW were conducted using a 128-well diet tray assay. one to five second instar BAW larvae were placed in each well (3 mL) of the diet tray that had been previously filled with 1 mL of artificial diet to which 50 μg/cm^2 of the test compound (dissolved in 50 μL of 90:10 acetone-water mixture) had been applied (to each of eight wells) and then allowed to dry. Trays were covered with a clear self-adhesive cover and held at 25° C., 14:10 light-dark for five to seven days. Percent mortality was recorded for the larvae in each well; activity in the eight wells was then averaged. The results are indicated in the table entitled “Table ABC: Biological Results” (See Table Section).

For series [3], the system named is Green Peach Aphid (Myzus persicae, MYZUPE). Put plainly: Bioassay on Green Peach Aphid (GPA), foliar spray on cabbage seedlings. The following applies: 72 h, 200 ppm spray on infested cabbage seedlings, graded after three days, Abbott corrected % control, read-out: GPA % Control (or Mortality) rating. On the procedure:
Certain molecules disclosed in this document were tested against GPA using procedures described in the following example. In the reporting of the results, the “GPA Rating Table” was used (See Table Section).
Cabbage seedlings grown in 3-inch pots, with 2-3 small (3-5 cm) true leaves, were used as test substrate. The seedlings were infested with 20-50 GPA (wingless adult and nymph stages) one day prior to chemical application. Four pots with individual seedlings were used for each treatment. Test compounds (2 mg) were dissolved in 2 mL of acetone/methanol (1:1) solvent, forming stock solutions of 1000 ppm test compound. The stock solutions were diluted 5× with 0.025% Tween 20 in water to obtain the solution at 200 ppm test compound. A hand-held aspirator-type sprayer was used for spraying a solution to both sides of […] leaves until runoff. Reference plants (solvent check) were sprayed with the diluent only containing 20% by volume of acetone/methanol (1:1) solvent. Treated plants were held in a holding room for three days at approximately 25° C. and ambient relative humidity (RH) prior to grading. Evaluation was conducted by counting the number of live aphids per plant under a microscope. Percent Control was measured by using Abbott's correction formula (W. S. Abbott, “A Method of Computing the Effectiveness of an Insecticide” J. Econ. Entomol. 18 (1925), pp. 265-267) as follows. Corrected % Control=100*(X−Y)/X where X=No. of live aphids on solvent check plants and Y=No. of live aphids on treated plants

Series [4] relates to Yellow Fever Mosquito (Aedes aegypti, AEDSAE). To be noted: about 1 day-old larvae, master plate 4000 ppm in DMSO diluted, room temperature, scored after 3 days on mortality. As to the method:
Certain molecules disclosed in this document were tested against YFM using procedures described in the following paragraph. In the reporting of the results, the “YFM Rating Table” was used (See Table Section).
Master plates containing 400 μg of a molecule dissolved in 100 μL of dimethyl sulfoxide (DMSO) (equivalent to a 4000 ppm solution) are used. A master plate of assembled molecules contains 15 μL per well. To this plate, 135 μL of a 90:10 water:acetone mixture is added to each well. A robot (Biomek® NXP Laboratory Automation Workstation) is programmed to dispense 15 μL aspirations from the master plate into an empty 96-well shallow plate (“daughter” plate). There are 6 reps (“daughter” plates) created per master. The created daughter plates are then immediately infested with YFM larvae.
The day before plates are to be treated, mosquito eggs are placed in Millipore water containing liver powder to begin hatching (4 g. into 400 mL). After the daughter plates are created using the robot, they are infested with 220 μL of the liver powder/larval mosquito mixture (about 1 day-old larvae). After plates are infested with mosquito larvae, a non-evaporative lid is used to cover the plate to reduce drying. Plates are held at room temperature for 3 days prior to grading. After 3 days, each well is observed and scored based on mortality.

For the molecule `FC(F)(F)Oc1ccc(-n2cnc(-c3ccc(NC4=N[C@H](c5ccccc5)CO4)cc3)n2)cc1` [Compound F1, (R)-4-Phenyl-N-(4-(1-(4-(trifluoromethoxy)phenyl)-1H-1,2,4-triazol-3-yl)phenyl)-4,5-dihydrooxazol-2-amine], the mortality at 50 µg/cm2 in series [1] and in series [2] was 50 to 100% in each case. For the same molecule, in series [3], the mortality at 200 ppm fell in the range of 80 to 100%. Besides, the “YFM % Control (or Mortality) rating” value in series [4] is on record as “B (More than 0-Less than 80)”.
Take `FC(F)(F)Oc1ccc(-n2cnc(-c3ccc(NC4=N[C@@H](c5ccccc5)CO4)cc3)n2)cc1` [Compound F2, (S)-4-Phenyl-N-(4-(1-(4-(trifluoromethoxy)phenyl)-1H-1,2,4-triazol-3-yl)phenyl)-4,5-dihydrooxazol-2-amine]: the mortality at 50 µg/cm2 in series [1] and in series [2] was 50 to 100% each time. In series [3], the mortality at 200 ppm lay in the range of 80 to 100%. Also, the “YFM % Control (or Mortality) rating” value in series [4] was “B (More than 0-Less than 80)”.
Consider `FC(F)(F)Oc1ccc(-n2cnc(-c3ccc(NC4=NC(c5ccc(C(F)(F)F)cc5)CO4)cc3)n2)cc1` (centres unmarked) [Compound F5, N-(4-(1-(4-(Trifluoromethoxy)phenyl)-1H-1,2,4-triazol-3-yl)phenyl)-4-(4-(trifluoromethyl)phenyl)-4,5-dihydrooxazol-2-amine], for which the mortality at 50 µg/cm2 in series [1] and in series [2] was 50 to 100% in each case. The mortality at 200 ppm in series [3] fell in the range of 80 to 100%. Further, the “YFM % Control (or Mortality) rating” value in series [4] is reported as “B (More than 0-Less than 80)”.
On to `FC(F)(F)Oc1ccc(-n2cnc(-c3ccc(NC4=NC(c5ccccc5Cl)CO4)cc3)n2)cc1` (centres unmarked) [Compound F11, 4-(2-Chlorophenyl)-N-(4-(1-(4-(trifluoromethoxy)phenyl)-1H-1,2,4-triazol-3-yl)phenyl)-4,5-dihydrooxazol-2-amine], for which the mortality at 50 µg/cm2 in series [1] and in series [2] was 50 to 100% each time. Moreover, in series [3], the mortality at 200 ppm came out at 0%. For the same molecule, the “YFM % Control (or Mortality) rating” value in series [4] was “D (No activity noticed in this bioassay)”.
Regarding `FC(F)(F)Oc1ccc(-n2cnc(-c3ccc(NC4=N[C@H](c5ccccc5)CCO4)cc3)n2)cc1` [Compound F20, (S)-4-Phenyl-N-(4-(1-(4-(trifluoromethoxy)phenyl)-1H-1,2,4-triazol-3-yl)phenyl)-5,6-dihydro-4H-1,3-oxazin-2-amine], the figures for the mortality at 50 µg/cm2 in series [1] and in series [2] were 50 to 100% and 0%, respectively. The mortality at 200 ppm in series [3] lay in the range of 80 to 100%. In addition, the “YFM % Control (or Mortality) rating” value in series [4] is recorded as “B (More than 0-Less than 80)”.
For the molecule `FC(F)(F)c1ccc(-n2cnc(-c3ccc(NC4=NC(c5ccccc5Cl)CS4)cc3)n2)cc1` (centres unmarked) [Compound F41, 4-(2-Chlorophenyl)-N-(4-(1-(4-(trifluoromethyl)phenyl)-1H-1,2,4-triazol-3-yl)phenyl)-4,5-dihydrothiazol-2-amine], the mortality at 50 µg/cm2 in series [1] and in series [2] was 50 to 100% each time. Moreover, in series [3], the mortality at 200 ppm came out at 0%.
In the case of `Cc1cc(C2CSC(Nc3ccc(-c4ncn(-c5ccc(C(F)(F)F)cc5)n4)cc3)=N2)ccc1Cl` (centres unmarked) [Compound F42, 4-(4-Chloro-3-methylphenyl)-N-(4-(1-(4-(trifluoromethyl)phenyl)-1H-1,2,4-triazol-3-yl)phenyl)-4,5-dihydrothiazol-2-amine], the mortality at 50 µg/cm2 in series [1] and in series [2] was 0% each time. In addition, in series [3], the mortality at 200 ppm is 0%.
On to `FC(F)(F)Oc1ccc(-n2cnc(-c3ccc(NC4=NC(c5ccc(Cl)cc5)CCO4)cc3)n2)cc1` (centres unmarked) [Compound F43, 4-(4-Chlorophenyl)-N-(4-(1-(4-(trifluoromethoxy)phenyl)-1H-1,2,4-triazol-3-yl)phenyl)-5,6-dihydro-4H-1,3-oxazin-2-amine], for which the values for the mortality at 50 µg/cm2 in series [1] and in series [2] were 50 to 100% and 0 to 50%, respectively. Moreover, the mortality at 200 ppm in series [3] lay in the range of 80 to 100%. The “YFM % Control (or Mortality) rating” value in series [4] is “B (More than 0-Less than 80)”.
In the same order, the values of `Cc1ccc(C2CCOC(Nc3ccc(-c4ncn(-c5ccc(OC(F)(F)F)cc5)n4)cc3)=N2)cc1` (centres unmarked) [Compound F44, 4-(p-Tolyl)-N-(4-(1-(4-(trifluoromethoxy)phenyl)-1H-1,2,4-triazol-3-yl)phenyl)-5,6-dihydro-4H-1,3-oxazin-2-amine] are 50 to 100%, 0 to 50%, 80 to 100% and “B (More than 0-Less than 80)”.
The like results for `FC(F)(F)Oc1ccc(-n2cnc(-c3ccc(NC4=NC(c5ccc(C(F)(F)F)cc5)CCO4)cc3)n2)cc1` (centres unmarked) [Compound F45, N-(4-(1-(4-(Trifluoromethoxy)phenyl)-1H-1,2,4-triazol-3-yl)phenyl)-4-(4-(trifluoromethyl)phenyl)-5,6-dihydro-4H-1,3-oxazin-2-amine] were, in that order, 50 to 100%, 50 to 100%, 80 to 100% and “B (More than 0-Less than 80)”.
